From patent publication US20260315609A1, “MIXED VASOPRESSIN RECEPTOR AGONIST-ANTAGONIST FOR TREATING END-STAGE LIVER DISEASE AND COMPLICATIONS ASSOCIATED THEREOF” (FERRING B.V., priority 2022, published 2026)
Like-named read-outs stand apart in the source and are kept apart here. Starred links: 1 amine or outer side, 2 acyl side, 3 side chain; linkers in the order of their positions; H or OH if unused. Positions of bridges follow the written chain, without caps; N, C: chain ends. Non-standard residues stand in square brackets, D forms with d. Residues, ends and D or L forms follow the SMILES beside them. Chains are numbered I, II in the order given. *: point of attachment. isoGln = NC(=O)[C@H](CCC(=O)[*:2])N[*:1]; εLys = N[C@@H](CCCCN[*:1])C(=O)[*:2]; Dab = NCC[C@H](N)C(=O)O; PhAc = O=C(Cc1ccccc1)*

Assay: Excretion of Compound 1 in urine of healthy subjects
Assay type: in vivo, human
Details: for dose excreted: human, urine, read-out: fraction of dose excreted unchanged in urine
Method: Urinalysis was performed locally by means of a dip-stick test. […] In case any result of the dipstick was abnormal and clinically significant, a new urine test was to be performed. If the abnormal result was confirmed, further examination could be initiated at the discretion of the Investigator. Clinically significant abnormal findings were reported as AEs. The metabolite pattern of Compound 1 in plasma and urine were measured.
In some instances, endpoints of the study were: vital signs (e.g., supine blood pressure, pulse, and body temperature), electrocardiogram (ECG) (e.g., intervals, rhythm, and morphology), cardiac function (e.g., cardiac output using echocardiography), peripheral blood flow/tissue perfusion (e.g., by skin color), venous blood gases (e.g., lactate), urinary output, clinical chemistry, hematology, hemostasis, and urinalysis, adverse events (AEs) (e.g., type, frequency, and intensity), pharmacokinetics (e.g., AUC, AUCt, AUCτ, % Extrap AUC, Cmax, tmax, CL, Vz, t1/2, MRT, Vss, F, Ae, and CLR), and metabolite pattern in plasma and urine.

With `CC[C@H](C)[C@@H]1NC(=O)[C@H](Cc2ccccc2)NC(=O)[C@@H](N)CSSC[C@@H](C(=O)N2CCC[C@H]2C(=O)N[C@@H](CCNC(=O)[C@@H](N)CCCCNC(=O)[C@H](CCCCNC(C)=O)NC(=O)CC[C@H](NC(=O)[C@H](CCCNC(=N)N)NC(=O)[C@@H]2CCCN2C(=O)[C@H](C)NC(=O)[C@H](CC(N)=O)NC(=O)[C@H](CCC(N)=O)NC(=O)[C@H](Cc2ccccc2)NC(=O)[C@@H](Cc2ccc(OC)cc2)NC(=O)Cc2ccccc2)C(N)=O)C(=O)NCC(N)=O)NC(=O)[C@H](CC(N)=O)NC(=O)[C@H](CCC(N)=O)NC1=O` [Compound 1, Glycinamide, L-cysteinyl-L-phenylalanyl-L-isoleucyl-L-glutaminyl-L-asparaginyl-L-cysteinyl-L-prolyl-N4-(phenylacetyl-O-methyl-D-tyrosyl-L-phenylalanyl-L-glutaminyl-L-asparaginyl-L-alanyl-L-prolyl-L-arginyl-L-isoglutamyl-N5-acetyl-L-lysyl-L-ε-lysyl)-L-2,4-diaminobutyryl-, cyclic (1→6)-disulfide] (I: H-CFIQNCP[Dab]G-NH2 / II: PhAc-[dY](Me)FQNAPR[isoGln]K(Ac)[εLys]; disulfide I:1-I:6; amide I:8-II:C) the dose excreted (iv) was under 10%, the dose excreted (sc) was under 5% and the “amount excreted in urine, 4-8 hours” value (i.v. 0.1 mg) was “about 3 μg”. For the same molecule, the “amount excreted in urine, 4-8 hours” value (i.v. 0.3 mg) was about 9 µg, the “amount excreted in urine, 4-8 hours” value (i.v. 0.45 mg) was about 16 µg and the “amount excreted in urine, 4-8 hours” value (i.v. 0.6 mg) was about 24 µg. For the same molecule, the “amount excreted in urine, 4-8 hours” value (i.v. 0.9 mg) was about 37 µg, the “amount excreted in urine, first 4 hours” value (s.c. 0.1 mg, 1st administration) was “about 2 μg” and the “amount excreted in urine, first 4 hours” value (s.c. 0.1 mg, 5th administration) was “about 0.3 μg”. The “amount excreted in urine, first 4 hours” value (s.c. 0.3 mg, 1st administration) was about 3 µg and the “amount excreted in urine, first 4 hours” value (s.c. 0.3 mg, 5th administration) was about 1.5 µg.
